Measured values as given in patent US20220144815A1, “1,3,4-OXADIAZOLES AND THEIR DERIVATIVES AS NEW ANTIFUNGAL AGENTS” (Bayer Aktiengesellschaft, priority 2018, published 2022).

Test system: not listed separately
Assay: Log P by HPLC on reversed phase columns, method [a] (EEC directive 79/831 Annex V.A8)
Assay type: physicochemical
Conditions: log P determined according to method [a] (HPLC on reversed phase columns)
How it was run: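 Log P calibrated with C3–C16 straight-chain alkan-2-ones of known Log P, interpolating linearly between retention times. Method per EEC 79/831 Annex V.A8: reversed-phase LC-UV in the acidic range, water/0.1% formic acid and acetonitrile gradient from 10% to 95% acetonitrile.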

| logP | SMILES |
| --- | --- |
| 3.57 | FC(F)c1nnc(-c2ccc(-c3ccccc3)cc2)o1 [Example I-007] |
| 2.64 | FC(F)c1nnc(-c2cnc(-c3cccs3)nc2)o1 [Example I-071] |
| 3.54 | Fc1ccccc1Nc1ccc(-c2nnc(C(F)(F)Cl)o2)cn1 [Example I-053] |
| 2.90 | FC(F)c1nnc(-c2ccc(Oc3ccccc3)nc2)o1 [Example I-043] |
| 2.31 | Fc1ccc(-c2ncc(-c3nnc(C(F)F)o3)cn2)cn1 [Example I-080] |
| 2.59 | Fc1ccc(Cc2ncc(-c3nnc(C(F)F)o3)cn2)cc1 [Example I-091] |
| 2.57 | FC(F)c1nnc(-c2cnc(NCc3ccccc3)nc2)o1 [Example I-088] |
| 3.14 | Cc1ccc(NC(=O)c2ccc(-c3nnc(C(F)F)o3)cn2)cc1 [Example I-048] |

Same assay, conditions: reversed phase HPLC column; log P determined according to method [a] (HPLC on reversed phase columns); read-out: logP

| chromatographic logP | SMILES |
| --- | --- |
| 3.54 | FC(F)c1nnc(-c2cnc(NC3(c4ccccc4)CCC3)nc2)s1 [I.159, 5-[5-(difluoromethyl)-1,3,4-thiadiazol-2-yl]-N-(1-phenylcyclobutyl)pyrimidin-2-amine] |
| 2.33 | N#Cc1ccc(C2(Nc3ncc(-c4nnc(C(F)F)o4)cn3)CC2)cc1 [I.152, 4-[1-({5-[5-(difluoromethyl)-1,3,4-oxadiazol-2-yl]pyrimidin-2-yl}amino)cyclopropyl]benzonitrile] |
| 3.57 | CC(C)C(Nc1ncc(-c2nnc(C(F)F)o2)cn1)c1ccccc1 (racemic) [I.139, 5-[5-(difluoromethyl)-1,3,4-oxadiazol-2-yl]-N-[(1RS)-2-methyl-1-phenylpropyl]pyrimidin-2-amine] |
| 3.1 | FC(F)c1nnc(-c2cnc(N3Cc4ccccc4C3)nc2)o1 [I.106, 2-{5-[5-(difluoromethyl)-1,3,4-oxadiazol-2-yl]pyrimidin-2-yl}isoindoline] |
| 2.51 | COc1ccccc1Cc1ncc(-c2nnc(C(F)F)o2)cn1 [I.107, 5-[5-(difluoromethyl)-1,3,4-oxadiazol-2-yl]-2-(2-methoxybenzyl)pyrimidine] |
| 2.8 | COc1ccccc1Nc1ncc(-c2nnc(C(F)F)o2)cn1 [I.109, 5-[5-(difluoromethyl)-1,3,4-oxadiazol-2-yl]-N-(2-methoxyphenyl)pyrimidin-2-amine] |
| 2.51 | FC(F)c1nnc(-c2cnc(OC3(c4ccccc4)COC3)nc2)o1 [I.142, 5-[5-(difluoromethyl)-1,3,4-oxadiazol-2-yl]-2-[(3-phenyloxetan-3-yl)oxy]pyrimidine] |
| 3.22 | Fc1ccccc1C1(Nc2ncc(-c3nnc(C(F)F)s3)cn2)CC1 [I.162, 5-[5-(difluoromethyl)-1,3,4-thiadiazol-2-yl]-N-[1-(2-fluorophenyl)cyclopropyl]pyrimidin-2-amine] |

Same assay, conditions: reversed phase HPLC column; method [a], HPLC on reversed phase columns; read-out: logP

| chromatographic logP | SMILES |
| --- | --- |
| 4.4 | FC(F)c1nnc(-c2cnc(NC3(c4ccc(Cl)cc4)CCCCC3)nc2)o1 [I.182, N-[1-(4-chlorophenyl)cyclohexyl]-5-[5-(difluoromethyl)-1,3,4-oxadiazol-2-yl]pyrimidin-2-amine] |
| 3.49 | FC(F)c1nnc(-c2cnc(NC3(c4ccccc4Br)CC3)nc2)o1 [I.183, N-[1-(2-bromophenyl)cyclopropyl]-5-[5-(difluoromethyl)-1,3,4-oxadiazol-2-yl]pyrimidin-2-amine] |
| 4.05 | Fc1ccc([C@H](Nc2ncc(-c3nnc(C(F)F)o3)cn2)C2CCCC2)cc1 [I.244, N—[(R)-cyclopentyl(4-fluorophenyl)methyl]-5-[5-(difluoromethyl)-1,3,4-oxadiazol-2-yl]pyrimidin-2-amine] |
| 3.45 | FC(F)c1nnc(-c2cnc(NC3(c4cccs4)CCCC3)nc2)o1 [I.225, 5-[5-(difluoromethyl)-1,3,4-oxadiazol-2-yl]-N-[1-(2-thienyl)cyclopentyl]pyrimidin-2-amine] |
| 2.84 | Fc1ccc(CCNc2ncc(-c3nnc(C(F)F)o3)cn2)cc1 [I.200, 5-[5-(difluoromethyl)-1,3,4-oxadiazol-2-yl]-N-[2-(4-fluorophenyl)ethyl]pyrimidin-2-amine] |
| 0.91 | CC(C)(Nc1ncc(-c2nnc(C(F)F)o2)cn1)c1cccnc1 [I.199, 5-[5-(difluoromethyl)-1,3,4-oxadiazol-2-yl]-N-[2-(pyridin-3-yl)propan-2-yl]pyrimidin-2-amine] |
| 4.05 | CC(C)(C)c1ccc(C2(Nc3ncc(-c4nnc(C(F)F)o4)cn3)CC2)cc1 [I.242, N-[1-(4-tert-butylphenyl)cyclopropyl]-5-[5-(difluoromethyl)-1,3,4-oxadiazol-2-yl]pyrimidin-2-amine] |
| 2.91 | FC(F)Oc1cccc(C2(Nc3ncc(-c4nnc(C(F)F)o4)cn3)CC2)c1 [I.246, N-{1-[3-(difluoromethoxy)phenyl]cyclopropyl}-5-[5-(difluoromethyl)-1,3,4-oxadiazol-2-yl]pyrimidin-2-amine] |
| 3.8 | Cc1cccc(C)c1C1(Nc2ncc(-c3nnc(C(F)F)o3)cn2)CC1 [I.216, 5-[5-(difluoromethyl)-1,3,4-oxadiazol-2-yl]-N-[1-(2,6-dimethylphenyl)cyclopropyl]pyrimidin-2-amine] |
| 3.76 | Fc1ccccc1C1(Nc2ncc(-c3nnc(C(F)(F)Cl)o3)cn2)CC1 [I.179, 5-{5-[chloro(difluoro)methyl]-1,3,4-oxadiazol-2-yl}-N-[1-(2-fluorophenyl)cyclopropyl]pyrimidin-2-amine] |
| 0.93 | Cc1ccnc(C2(Nc3ncc(-c4nnc(C(F)F)o4)cn3)CC2)c1 [I.203, 5-[5-(difluoromethyl)-1,3,4-oxadiazol-2-yl]-N-[1-(4-methylpyridin-2-yl)cyclopropyl]pyrimidin-2-amine] |
| 0.74 | CC(Nc1ncc(-c2nnc(C(F)F)o2)cn1)c1cccnc1 (racemic) [I.188, 5-[5-(difluoromethyl)-1,3,4-oxadiazol-2-yl]-N-[(1RS)-1-(pyridin-3-yl)ethyl]pyrimidin-2-amine] |
| 3.64 | CCC(Nc1ncc(-c2nnc(C(F)F)o2)cn1)c1ccccc1Br (racemic) [I.260, N-[(1RS)-1-(2-bromophenyl)propyl]-5-[5-(difluoromethyl)-1,3,4-oxadiazol-2-yl]pyrimidin-2-amine] |

Test system: Colletotrichum lindemuthianum
Assay: Example B: in vitro cell test, spore germination and mycelium growth in liquid culture
Assay type: cell-based
Conditions: 144 h, 20 ppm of tested compound, 6 days incubation, read-out: efficacy (inhibition of fungal growth)
Procedure: • Solvent: dimethyl sulfoxide Culture medium: 14.6 g anhydrous D-glucose (VWR), • 7.1 g mycological peptone (Oxoid), • 1.4 g granulated yeast extract (Merck), QSP 1 liter Inoculum: spore suspension The tested compounds were solubilized in dimethyl sulfoxide and the solution used to prepare the required range of concentrations. The final concentration of dimethyl sulfoxide used in the assay was ≤1%. A spore suspension of Colletotrichum lindemuthianum was prepared and diluted to the desired spore density. The compounds were evaluated for their ability to inhibit spore germination and mycelium growth in liquid culture assay. The compounds were added in the desired concentration to the culture medium with spores. After 6 days incubation, fungi-toxicity of compounds was determined by spectrometric measurement of mycelium growth. Inhibition of fungal growth was determined by comparing the absorbance values in wells containing the tested compounds with the absorbance in control wells without tested compounds.

| SMILES | inhibition of growth at 20 µg/mL |
| --- | --- |
| FC(F)c1nnc(-c2cnc(NC3(c4ccccc4)CCC3)nc2)s1 [I.159, 5-[5-(difluoromethyl)-1,3,4-thiadiazol-2-yl]-N-(1-phenylcyclobutyl)pyrimidin-2-amine] | 90 to 100% |
| FC(F)c1nnc(-c2cnc(NC3(c4ccc(Cl)cc4)CCCCC3)nc2)o1 [I.182, N-[1-(4-chlorophenyl)cyclohexyl]-5-[5-(difluoromethyl)-1,3,4-oxadiazol-2-yl]pyrimidin-2-amine] | 70 to 79% |
| FC(F)c1nnc(-c2cnc(Cl)nc2)o1 [I.061, 2-chloro-5-[5-(difluoromethyl)-1,3,4-oxadiazol-2-yl]pyrimidine] | 90 to 100% |
| FC(F)c1nnc(-c2cnc(NC3(c4ccccc4Br)CC3)nc2)o1 [I.183, N-[1-(2-bromophenyl)cyclopropyl]-5-[5-(difluoromethyl)-1,3,4-oxadiazol-2-yl]pyrimidin-2-amine] | 80 to 89% |
| FC(F)c1nnc(-c2cnc(NCC3CC3)nc2)o1 [I.067, N-(cyclopropylmethyl)-5-[5-(difluoromethyl)-1,3,4-oxadiazol-2-yl]pyrimidin-2-amine] | 80 to 89% |
| COc1ccc(-c2ncc(-c3nnc(C(F)F)o3)cn2)cc1 [I.089, 5-[5-(difluoromethyl)-1,3,4-oxadiazol-2-yl]-2-(4-methoxyphenyl)pyrimidine] | 90 to 100% |
| N#Cc1ccc(C2(Nc3ncc(-c4nnc(C(F)F)o4)cn3)CC2)cc1 [I.152, 4-[1-({5-[5-(difluoromethyl)-1,3,4-oxadiazol-2-yl]pyrimidin-2-yl}amino)cyclopropyl]benzonitrile] | 90 to 100% |
| CC(C)C(Nc1ncc(-c2nnc(C(F)F)o2)cn1)c1ccccc1 (racemic) [I.139, 5-[5-(difluoromethyl)-1,3,4-oxadiazol-2-yl]-N-[(1RS)-2-methyl-1-phenylpropyl]pyrimidin-2-amine] | 90 to 100% |
| Fc1ccccc1C1(Nc2ccc(-c3nnc(C(F)F)o3)cc2)CC1 [I.025, 4-[5-(difluoromethyl)-1,3,4-oxadiazol-2-yl]-N-[1-(2-fluorophenyl)cyclopropyl]aniline] | 80 to 89% |
| C#CCNc1ncc(-c2nnc(C(F)F)o2)cn1 [I.063, 5-[5-(difluoromethyl)-1,3,4-oxadiazol-2-yl]-N-(prop-2-yn-1-yl)pyrimidin-2-amine] | 90 to 100% |
